# Results taken from patent US11400073B2, “Prevention and treatment of benign prostatic hyperplasia using a selective inhibitor of the production of reactive oxygen species of mitochondrial origin” (priority 2017, dated 2022).
# Assays:
# cytokines = details: experimental T. vaginalis prostatic infection models; inhibition of ROS production (Kim S-S., 2016); cited from earlier work
# prostatic ROSs = details: Ren, 2015; cited from earlier work
# [1] = test system: cell proliferation / apoptosis; details: Ren, 2015; cited from earlier work
# VEGF = details: Ren, 2015; cited from earlier work
# HIF-1α = details: Ren, 2015; cited from earlier work
# [2] = test system: SRD5A2 (5-alpha-reductase); assay: RT-qPCR of SRD5A2 in Pb-PRL mouse prostate; assay type: in vivo; details: Pb-PRL mice, 60 mg/kg/day, 28 days, vs control; dorsal, lateral, ventral prostate; FIGS. 5A-5C
# Method: (§1) ATT (anethole trithione) was administered to probasin-prolactin (Pb-PRL) mice. This is a transgenic mouse model in which prolactin is specifically overexpressed by the epithelial cells of the prostate, leading to development of benign hyperplasia having characteristics in common with the human pathology: tissue hypertrophy, hyperplasia of the epithelial and stromal cells, and intra-prostatic inflammation (Kindblom et al., 2003; Bernichtein et al., 2015a; Bernichtein et al., 2015b).
# (§2) The control group (excipient) was treated with the oil alone.
# (§3) The animals were sacrificed at the end of the 28 days of treatment (cervical dislocation), and the prostates were harvested and analyzed by the standard procedures previously described in the literature (Bernichtein et al. Prostate 2015, Bernichtein et al. PLoS. ONE 2015, Bernichtein et al. Cancer Res 2017).
# (§4) This study was performed by RT-qPCR analysis of the expression of elements associated with androgenic signaling and of conventional targets of the androgen receptor in the prostate (AR, PSP 94, Srd5A1, Srd5A2) (Bernichtein et al. Prostate 2015, Sackmann Sala et al. J Pathol 2017).
# HIF1 alpha = assay: RT-qPCR of HIF1 alpha (hypoxia) in Pb-PRL mouse prostate; assay type: in vivo; details: Pb-PRL mice, 60 mg/kg/day, 28 days, vs control; in one or more prostate lobes; FIGS. 13A-13C
# Method: as §1, §2, §3
# Hypoxia was observed by analysis of HIF1 alpha measured by RT-qPCR at the dorsal, lateral and ventral prostate. The results are presented in FIGS. 13A, 13B and […], respectively.
# [3] = test system: IQ site of the I complex of the mitochondrial respiratory chain; assay: Action on mitochondrial ROS production; assay type: biochemical; details: mostly at the IQ site of the I complex of the mitochondrial respiratory chain; unlike conventional antioxidants
# TNFalpha = assay: RT-qPCR of TNFalpha in Pb-PRL mouse prostate; assay type: in vivo; details: Pb-PRL mice, 60 mg/kg/day, 28 days, vs control; dorsal, lateral, ventral prostate; FIGS. 9A-9C
# Method: as §1, §2, §3
# (§5) The inflammation was measured using two approaches: • CD45 immunolabeling (IHC): making it possible to quantify the number and size of the inflammation sites (image analysis using Calopix software). • RT-qPCR of selected cytokines: IL6 and TNFa.
# PHD1 dioxygenase = assay: RT-qPCR of PHD1 dioxygenase in Pb-PRL mouse prostate; assay type: in vivo; details: Pb-PRL mice, 60 mg/kg/day, 28 days, vs control; FIGS. 11A-11C
# Method: as §1, §2, §3
# (§6) Oxidative stress will be measured using two approaches: • oxidation/carbonylation of the proteins by blot (Oxyblot™, Merck). • PHD1 and PHD3 dioxygenase expression (RT-qPCR).
# Pb-PRL mice = assay: Scar fibrosis in Pb-PRL mouse prostate; assay type: in vivo; details: 60 mg/kg/day, 28 days, vs control
# Method: ATT (anethole trithione) was administered to probasin-prolactin (Pb-PRL) mice. This is a transgenic mouse model in which prolactin is specifically overexpressed by the epithelial cells of the prostate, leading to development of benign hyperplasia having characteristics in common with the human pathology: tissue hypertrophy, hyperplasia of the epithelial and stromal cells, and intra-prostatic inflammation (Kindblom et al., 2003; Bernichtein et al., 2015a; Bernichtein et al., 2015b). […] The control group (excipient) was treated with the oil alone. […] The animals were sacrificed at the end of the 28 days of treatment (cervical dislocation), and the prostates were harvested and analyzed by the standard procedures previously described in the literature (Bernichtein et al. Prostate 2015, Bernichtein et al. PLoS. ONE 2015, Bernichtein et al. Cancer Res 2017).
# PHD3 dioxygenase = assay: RT-qPCR of PHD3 dioxygenase in Pb-PRL mouse prostate; assay type: in vivo; details: Pb-PRL mice, 60 mg/kg/day, 28 days, vs control; FIGS. 12A-12C
# Method: as §1, §2, §3, §6
# CD45 = CD45 immunolabeling (IHC) of inflammation sites in Pb-PRL mouse prostate; assay type: in vivo; details: Pb-PRL mice, 60 mg/kg/day, 28 days, vs control; half-prostate; FIG. 7
# Method: as §1, §2, §3, §5
# [4] = test system: SRD5A1 (5-alpha-reductase); assay: RT-qPCR of SRD5A1 in Pb-PRL mouse prostate; assay type: in vivo; details: Pb-PRL mice, 60 mg/kg/day, 28 days, vs control; dorsal, lateral, ventral prostate; FIGS. 4A-4C
# Method: as §1, §2, §3, §4
# [5] = marketed as SULFARLEM; cited from earlier work
# PSP94 = assay: RT-qPCR of PSP94 in Pb-PRL mouse prostate; assay type: in vivo; details: Pb-PRL mice, 60 mg/kg/day, 28 days, vs control; dorsal, lateral, ventral prostate; FIGS. 6A-6C
# Method: as §1, §2, §3, §4
# [6] = in rats; cited from earlier work
# [7] = test system: oxidation/carbonylation of the proteins; assay: Oxidation/carbonylation of the proteins by blot (Oxyblot) in Pb-PRL mouse prostate; assay type: in vivo; details: Pb-PRL mice, 60 mg/kg/day, 28 days, vs control; all lobes; FIGS. 10A-10C
# Method: as §1, §2, §3, §6
# [8] = test system: epithelial proliferation (Ki-67); assay: Epithelial proliferation by IHC Ki-67 in Pb-PRL mouse prostate; assay type: in vivo; details: Pb-PRL mice, 60 mg/kg/day by gavage, 28 days, vs control group; half-prostate; FIG. 2
# Method: as §1, §2, §3
# Cell proliferation was measured by IHC Ki-67, which makes it possible to calculate the epithelium proliferation index (manual counting or Calopix software).
# IL6 = assay: RT-qPCR of IL6 in Pb-PRL mouse prostate; assay type: in vivo; details: Pb-PRL mice, 60 mg/kg/day, 28 days, vs control; dorsal, lateral, ventral prostate; FIGS. 8A-8C
# Method: as §1, §2, §3, §5
# [9] = test system: mitochondrial oxidative phosphorylation; assay: Effect on mitochondrial oxidative phosphorylation; assay type: biochemical; details: preliminarily demonstrated
smiles,measurement,setting,value
"c1ccc2c(c1)[I+]c1ccccc1-2 [DPI, diphenylene iodonium]",overexpression of cytokines,cytokines,prevents overexpression
CC1=NN(c2ccccc2)C(=O)C1 [edaravone],levels of prostatic ROSs,prostatic ROSs,decreases
same,apoptosis,[1],promotes
same,cell proliferation,[1],reduces
same,levels of VEGF,VEGF,decreases
same,levels of HIF-1α,HIF-1α,decreases
"COc1ccc(-c2cc(=S)ss2)cc1 [ATT, 5-(4-methoxyphenyl)-3H-1,2-dithiole-3-thione]",expression of 5-alpha-reductase 2 (SRD5A2) messenger RNAs,[2],statistically significant decrease
same,expression of the messenger RNAs of the HIF1 alpha hypoxia marker,HIF1 alpha,statistically significant increase
same,action on mitochondrial ROS production,[3],acts directly and selectively
same,expression of TNFalpha,TNFalpha,decrease
same,expression of the messenger RNAs of PHD1 dioxygenase,PHD1 dioxygenase,statistically significant decrease
same,scar fibrosis,Pb-PRL mice,statistically significant increase
same,expression of the messenger RNAs of PHD3 dioxygenase,PHD3 dioxygenase,statistically significant decrease
same,number of positive leukocyte cell sites for the CD45 marker,CD45,statistically significant decrease
same,expression of 5-alpha-reductase 1 (SRD5A1) messenger RNAs,[4],statistically significant decrease
same,side effects associated to long-term use,[5],no side effect has been reported
same,expression of PSP94 messenger RNAs,PSP94,statistically significant decrease
same,half-life,[6],24 min
same,carbonylation of the proteins (Oxyblot),[7],statistically significant decrease
same,epithelial proliferation of the prostate (Ki-67 immunohistochemistry),[8],statistically significant decrease
same,expression of IL6,IL6,decrease
same,effect on mitochondrial oxidative phosphorylation,[9],does not affect
